Assay results taken from ChEMBL document CHEMBL3621180, “Isolation of two new bioactive sesquiterpene lactone glycosides from the roots of Ixeris dentata” (Bioorg Med Chem Lett, 2015).

How the values were obtained:
[1] = Cytotoxic activity against […] BV2 cells assessed as cell viability at 5 uM incubated for 24 hrs by MTT assay (reference value: 100%); assay type: cell-based, BV-2; conditions: read-out: Activity
[2] = Antiinflammatory activity in […] BV2 cells assessed as inhibition of lipopolysaccharide-induced nitric oxide production at 20 uM incubated for 24 hrs by Griess reagent based assay (reference value: 20.3 +/- 0.1 uM); assay type: functional, BV-2
[3] = Antiinflammatory activity in […] BV2 cells assessed as inhibition of lipopolysaccharide-induced nitric oxide production at 5 uM incubated for 24 hrs by Griess reagent based assay (reference value: 20.3 +/- 0.1 uM); assay type: functional, BV-2
[4] = Cytotoxic activity against […] BV2 cells assessed as cell viability at 20 uM incubated for 24 hrs by MTT assay (reference value: 100%); assay type: cell-based, BV-2; conditions: mouse, read-out: Activity

Compound | viability at 24 h, 5 µM [1] [%] | Activity [2] [µM] | Activity [3] [µM] | viability at 24 h, 20 µM [4] [%]
C=C1[C@@H]2[C@H]3OC(=O)[C@@H](C)[C@@H]3C[C@@H](O)C(=C)[C@@H]2C[C@@H]1O[C@@H]1O[C@H](CO)[C@@H](O)[C@H](O)[C@H]1O | 102 | 17.5 | 18.6 | 114
C=C1C(=O)O[C@@H]2/C=C(\CO[C@@H]3O[C@H](CO)[C@@H](O)[C@H](O)[C@H]3O)CC/C=C(\C)CC[C@@H]12 | 105 | 18 | 20.1 | 103
CC1=CC[C@@H](O[C@@H]2O[C@H](CO)[C@@H](O)[C@H](O)[C@H]2O)[C@]2(C)CC[C@@H]3[C@H](OC(=O)[C@H]3C)[C@@H]12 | 107 | 18.4 | 18.9 | 112
C=C1C(=O)O[C@@H]2[C@H]3C(C)=C(O[C@@H]4O[C@H](CO)[C@@H](O)[C@H](O)[C@H]4O)C[C@H]3C(=C)C[C@@H](OC(=O)Cc3ccc(O)cc3)[C@@H]12 | 106 | 9.3 | 18.2 | 103
C=C1C(=O)O[C@@H]2[C@H]3C(=C)[C@@H](O[C@@H]4O[C@H](CO)[C@@H](O)[C@H](O)[C@H]4O)C[C@H]3C(=C)C[C@@H](O)[C@@H]12 | 104 | 17.6 | 19.8 | 103
CC1=C2[C@H]3OC(=O)[C@@H](C)[C@@H]3CC[C@@]2(C)[C@H](O)CC1 | 110 | 17.7 | 17.9 | 110
C=C1[C@@H]2[C@H]3OC(=O)C(=C)[C@@H]3C[C@@H](O)C(=C)[C@@H]2C[C@@H]1O[C@@H]1O[C@H](CO)[C@@H](O)[C@H](O)[C@H]1O | 110 | 18.7 | 19.7 | 110
C=C1C(=O)O[C@@H]2[C@H]3C(=C)[C@@H](O[C@@H]4O[C@H](CO)[C@@H](O)[C@H](O)[C@H]4O)C[C@H]3C(=C)C[C@@H](OC(=O)Cc3ccc(O)cc3)[C@@H]12 | 106 | 16.3 | 20.3 | 109
C=C1C[C@@H](O)[C@@H]2[C@H](OC(=O)[C@H]2C)[C@H]2C(C)=C(O[C@@H]3O[C@H](CO)[C@@H](O)[C@H](O)[C@H]3O)C[C@@H]12 | 108 | 17.2 | 19.9 | 108
CNC(=N)NCCC[C@H](N)C(=O)O [TILARGININE] | 112 | 14.1 | 20.1 | 108
C/C1=C\CC/C(CO[C@@H]2O[C@H](CO)[C@@H](O)[C@H](O)[C@H]2O)=C/[C@H]2OC(=O)[C@@H](C)[C@@H]2CC1 | 113 | 18.8 | 19.6 | 107
C=C1C(=O)O[C@@H]2[C@H]3C(=C)[C@@H](O[C@@H]4O[C@H](CO)[C@@H](O)[C@H](O)[C@H]4O)C[C@H]3C(=C)C[C@@H](OC(=O)C(O)C(C)C)[C@@H]12 (stereo not given in full) | 105 | 18.2 | 21.5 | 97.5
C=C1[C@@H]2[C@H]3OC(=O)[C@@H](C)[C@@H]3[C@H](O)CC(=C)[C@@H]2C[C@@H]1O[C@@H]1O[C@H](CO)[C@@H](O)[C@H](O)[C@H]1O | 106 | 18 | 20.4 | 105
C=C1[C@@H]2[C@H]3OC(=O)[C@@H](C)[C@@H]3CCC(=C)[C@@H]2C[C@@H]1O[C@@H]1O[C@H](CO)[C@@H](O)[C@H](O)[C@H]1O | 116 | 18.2 | 19.9 | 116
C=C1C[C@@H](O)[C@@H]2[C@H](OC(=O)[C@H]2C)[C@H]2[C@H](C)[C@@H](O[C@@H]3O[C@H](CO)[C@@H](O)[C@H](O)[C@H]3O)C[C@@H]12 | 103 | 19.4 | 19.6 | 103
